Measurements: patent US7189754B2, “Pyrrolidine ester derivatives with oxytocin modulating activity” (Applied Research Systems ARS Holding NV, priority 2001, dated 2007)

Assays:
[1] = test system: oxytocin-induced uterine contractions in the rat; assay: In vivo model for inhibition of uterine contractions (oxytocin-induced, anaesthetised DES-treated rats); details: intravenous, PEG400/saline 50:50, 5 ml/kg infusion
Description: d) In Vivo Model for Inhibtion of Uterine Contractions
The assay evaluates the biological effect of tested compounds in an in vivo model of preterm labor, premature birth.
Non-pregnant Charles River CD (SD) BR female rats (9–10 weeks old, 200–250 g) were treated at 18 and 24 hours before the experiment with 250 μg/kg, i.p. diethylstilbestrol (DES). For the assay, the animal was anaesthetised with urethane (1.75 g/kg, i.p.) and placed on a homeothermic operating table. The trachea was isolated and cannulated with a suitable polyethylene (PE) tubing. A midline incision at the hypogastrium level was made and one uterine horn exposed, its cephalic end cannulated with a PE240 tubing and, after filling the internal cavity with 0.2 ml of sterile physiological saline, connected to a “Gemini” amplifying/recording system via a P23ID Gould Statham pressure transducer.
One jugular vein was isolated, cannulated with a PE60 tubing and connected to a butterfly needle to provide an i.v. route of administration of the test compounds via a dispensing syringe.
In the case of intraduodenal administration of the test compounds, the duodenum can be isolated and similarly cannulated through a small incision in its wall.
One carotid artery was also isolated and cannulated with PE60 catheter and connected to a suitable syringe for blood sample collection.
After a stabilization period and throughout the experiment, the same dose of oxytocin was repeatedly injected intravenously at 30-min intervals. When reproducible contractile responses of the uterus to the same OT stimulus (selected dose of oxytocin) were obtained, the dose of the test compound or of the reference (vehicle) was administered. […]
The contractile response of the uterus to oxytocin was quantified by measuring the intrauterine pressure and the number of contractions. The effect of the reference and test compounds was evaluated by comparing pre- and post-treatment pressure values. […]
The activities of the pyrrolidine derivatives of formula (I) may be assessed using the above described in vivo biological assay. […]

CO/N=C1/C[C@@H](C(=O)OC)N(C(=O)c2ccc(-c3ccccc3C)cc2)C1 [Methyl (2S,4Z)-4-(methoxyimino)-1-[(2′-methyl[1,1′-biphenyl]-4-yl)carbonyl]-2-pyrrolidinecarboxylate]
% Reduction of Uterine Contraction ([1]; dose 1 mg/kg): −35.4 ± 7.0%
% Reduction of Uterine Contraction ([1]; dose 3 mg/kg): −49.0 ± 6.5%
% Reduction of Uterine Contraction ([1]; dose 10 mg/kg): −51.8 ± 9.2%
melting point: 40 °C
